# Reference: article PMC6667281 (Biochemistry, 2019)
# What was measured:
# CymD [1] = target: T1, CymD (Salinispora arenicola, UniProt A8M6W6); experiment: prenyl donor in coupled pyrophosphate-release assay with purified CymD; format: biochemical
# CymD [2] = target: T1, CymD; experiment: ITC; format: binding
# T1 sequence (A8M6W6 2-373): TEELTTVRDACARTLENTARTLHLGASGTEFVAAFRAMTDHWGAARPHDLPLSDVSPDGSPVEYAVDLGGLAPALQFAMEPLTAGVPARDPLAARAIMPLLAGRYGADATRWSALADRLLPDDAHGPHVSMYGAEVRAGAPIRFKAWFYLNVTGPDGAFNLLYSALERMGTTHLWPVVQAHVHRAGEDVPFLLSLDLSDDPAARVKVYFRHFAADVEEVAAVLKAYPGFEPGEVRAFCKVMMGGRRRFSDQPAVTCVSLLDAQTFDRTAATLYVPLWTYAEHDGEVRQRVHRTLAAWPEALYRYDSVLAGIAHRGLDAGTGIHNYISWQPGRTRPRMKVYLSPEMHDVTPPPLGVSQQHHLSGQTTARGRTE
Kd (CymD [2]),SMILES,prenyl donor in coupled pyrophosphate-release assay with purified CymD (CymD [1])
,CC(C)=CCOP(=O)(O)OP(=O)(O)O [DMAPP],Specific activities of CymD with DMAPP and various prenyl acceptor substrates.
4.4 ± 0.4 µM,N[C@@H](Cc1c[nH]c2ccccc12)C(=O)O [L-Trp],
